Reference: PubChem BioAssay AID1963864 (Molecular Pharmacology Branch, DTP, NCI, 2024)

Test system: KRAS PDC multicell spheroid viability
Assay: Anticancer human tumor 521955-158-R6-J3-PDC patient-derived pancreatic carcinoma cell line growth inhibition [KRAS2]
Details: for IC50: curve of first compound; for viability, T/C: stronger effect = lower value
Excerpt: Multicellular complex tumor spheroid response to RAS pathway inhibitors in combination with a targeted agents in patient-derived cell lines with oncogenic KRAS variants from multiple cancer types
A high-throughput screen of multi-cell type tumor spheroids was designed to identify active combinations of targeted small molecules and KRAS pathway inhibitors. Complex spheroids include a stromal component modeled by human endothelial cells (HUVEC) and fibroblasts modeled by human mesenchymal stem cells (MSCs). The concentration ranges selected for each drug and investigational agent were based upon clinically achievable concentrations if the clinical Cmax of the agent was known.
Compounds. The drugs and investigational agents: BI-3406 (NSC825286), BAY-293 (NSC824723), batoprotafib (TNO155; NSC825523), sotorasib (AMG 510; NSC818433), MRTX1257 (NSC819558), elimusertib (BAY 1895344; NSC800525), molibresib (GSK525762; NSC774829), temuterkib (LY3214996; NSC803410), venetoclax (NSC766270), alisertib (NSC759677), olaparib (NSC753686), talazoparib (NSC767125), erdafitinib (NSC781556), ipatasertib (NSC767898), cabozantinib (NSC761068), nintedanib (NSC756659), abemaciclib (NSC768073), docetaxel (NSC628503), trametinib (NSC758246), and sapanisertib (NSC764658) were obtained from the National Cancer Institute (NCI) Developmental Therapeutics Program Chemical Repository. The FDA-approved anticancer drug set is available from the Developmental Therapeutics Program. […] The stock solutions were prepared in dimethyl sulfoxide (DMSO, Sigma-Aldrich, St. Louis, MO, cat. D2650) at 800-fold the tested concentration and stored at -70 degrees C prior to their use. All drugs and investigational agents were tested over a range starting from a high concentration at or near the clinical Cmax and decreasing in half-log increments. If the clinical Cmax for an agent had not been determined, the highest concentration tested was 10 microM.
Cell Culture. All cells were maintained in an incubator at 37 degrees C and 5% CO2 with 95% humidity. The PDC lines were cultured according to standard operating procedures established by the NCI PDMR (https://pdmr.cancer.gov/sops/default.htm). Briefly, all PDCs were thawed and cultured in Matrigel-coated flasks prepared with a working solution of 1X Ham's F-12 nutrient mix, without supplementation (Invitrogen, Waltham, MA, cat. 11765054), 100 U/mL penicillin-streptomycin (Invitrogen, cat. 15140122), and 2.5% Matrigel (Corning Inc., Corning, NY, cat. 354248) for the first three passages. All PDCs were cultured in complete DMEM/F-12 media containing advanced DMEM/F-12 (Invitrogen, cat. 12634028), 4.9% defined fetal bovine serum, heat inactivated (HyClone Laboratories Inc., Logan, UT, cat. SH30070.03HI), 389 ng/mL hydrocortisone (Sigma-Aldrich, cat. H4001), 9.7 ng/mL human EGF recombinant protein (Invitrogen, cat. PHG0313), 23.4 microg/mL adenine (Sigma-Aldrich, cat. A2786), 97.3 U/mL penicillin-streptomycin (Invitrogen, cat. 15140122), 1.9 mM L-glutamine (Invitrogen, cat. 25030081), and 9.7 microM Y-27632 dihydrochloride (Tocris Bioscience, Bristol, United Kingdom, cat. 1254). The PDCs were cultured in complete DMEM/F12 media without 9.7 microM Y-27632 dihydrochloride for at least two passages prior to the screen. The established cell line HOP-62 was cultured in RPMI 1640 medium, HEPES (Invitrogen, cat. 22400105) with 10% defined fetal bovine serum (HyClone Laboratories Inc., cat. SH30070.03) and 2 mM L-glutamine (Invitrogen, cat. 25030081). The pooled donor HUVEC were cultured in endothelial cell growth medium 2 (PromoCell, Heidelberg, Germany, cat. C-22011) and the hMSC were cultured in mesenchymal stem cell growth medium 2 (PromoCell, cat. C-28009). For all experiments, HUVEC and hMSC were used at passages </=5, while the malignant cell lines were used at passages </=15. […]

[1] = second compound 0.1 µM, first compound 0.0316 µM
[2] = second compound 0.316 µM, first compound 0.0316 µM
[3] = second compound 1 µM, first compound 0.0316 µM
[4] = second compound 3.16 µM, first compound 0.0316 µM
[5] = second compound 10 µM, first compound 0.0316 µM
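Also: drug exposure lasted seven days.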
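For viability, T/C in this document: 100% = DMSO vehicle wells and lower means fewer viable cells.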

CC(=O)Nc1cccc(-n2c(=O)n(C3CC3)c(=O)c3c(Nc4ccc(I)cc4F)n(C)c(=O)c(C)c32)c1 + C=CC(=O)N1CCN(c2nc(=O)n(-c3c(C)ccnc3C(C)C)c3nc(-c4c(O)cccc4F)c(F)cc23)C(C)C1
IC50 (second compound 0.1 µM): 25.5 nM
IC50 (second compound 0.316 µM): > 31.6 nM
IC50 (second compound 1 µM): > 31.6 nM
IC50 (second compound 3.16 µM): > 31.6 nM
IC50 (second compound 10 µM): 8.58 nM
viability, T/C (second compound 0.1 µM, first compound 0.0001 µM): 97.7%
viability, T/C (second compound 0.1 µM, first compound 0.000316 µM): 96.3%
viability, T/C (second compound 0.1 µM, first compound 0.001 µM): 92%
viability, T/C (second compound 0.1 µM, first compound 0.00316 µM): 88.1%
viability, T/C (second compound 0.1 µM, first compound 0.01 µM): 69.1%
viability, T/C [1]: 45.2%
viability, T/C (second compound 0.316 µM, first compound 0.0001 µM): 107%
viability, T/C (second compound 0.316 µM, first compound 0.000316 µM): 99.1%
viability, T/C (second compound 0.316 µM, first compound 0.001 µM): 95.4%
viability, T/C (second compound 0.316 µM, first compound 0.00316 µM): 83.7%
viability, T/C (second compound 0.316 µM, first compound 0.01 µM): 72.8%
viability, T/C [2]: 50.5%
viability, T/C (second compound 1 µM, first compound 0.0001 µM): 102%
viability, T/C (second compound 1 µM, first compound 0.000316 µM): 99.9%
viability, T/C (second compound 1 µM, first compound 0.001 µM): 98.5%
viability, T/C (second compound 1 µM, first compound 0.00316 µM): 88.1%
viability, T/C (second compound 1 µM, first compound 0.01 µM): 83.4%
viability, T/C [3]: 51%
viability, T/C (second compound 3.16 µM, first compound 0.0001 µM): 84.4%
viability, T/C (second compound 3.16 µM, first compound 0.000316 µM): 92.2%
viability, T/C (second compound 3.16 µM, first compound 0.001 µM): 91.9%
viability, T/C (second compound 3.16 µM, first compound 0.00316 µM): 90.7%
viability, T/C (second compound 3.16 µM, first compound 0.01 µM): 71.6%
viability, T/C [4]: 52.2%
viability, T/C (second compound 10 µM, first compound 0.0001 µM): 64.4%
viability, T/C (second compound 10 µM, first compound 0.000316 µM): 69.8%
viability, T/C (second compound 10 µM, first compound 0.001 µM): 58.4%
viability, T/C (second compound 10 µM, first compound 0.00316 µM): 58.4%
viability, T/C (second compound 10 µM, first compound 0.01 µM): 46.3%
viability, T/C [5]: 41%

COc1cc(Nc2ncc3c(n2)-c2ccc(Cl)cc2C(c2c(F)cccc2OC)=NC3)ccc1C(=O)O + C=CC(=O)N1CCN(c2nc(=O)n(-c3c(C)ccnc3C(C)C)c3nc(-c4c(O)cccc4F)c(F)cc23)C(C)C1
IC50 (second compound 0.1 µM): > 10000 nM
IC50 (second compound 0.316 µM): > 10000 nM
IC50 (second compound 1 µM): > 10000 nM
IC50 (second compound 3.16 µM): > 10000 nM
IC50 (second compound 10 µM): > 10000 nM
viability, T/C [1]: 109%
viability, T/C (second compound 0.1 µM, first compound 0.1 µM): 103%
viability, T/C (second compound 0.1 µM, first compound 0.316 µM): 102%
viability, T/C (second compound 0.1 µM, first compound 1 µM): 92.6%
viability, T/C (second compound 0.1 µM, first compound 3.16 µM): 89.1%
viability, T/C (second compound 0.1 µM, first compound 10 µM): 89.8%
viability, T/C [2]: 100%
viability, T/C (second compound 0.316 µM, first compound 0.1 µM): 108%
viability, T/C (second compound 0.316 µM, first compound 0.316 µM): 99.4%
viability, T/C (second compound 0.316 µM, first compound 1 µM): 79.6%
viability, T/C (second compound 0.316 µM, first compound 3.16 µM): 82.9%
viability, T/C (second compound 0.316 µM, first compound 10 µM): 82.1%
viability, T/C [3]: 93.2%
viability, T/C (second compound 1 µM, first compound 0.1 µM): 103%
viability, T/C (second compound 1 µM, first compound 0.316 µM): 94.7%
viability, T/C (second compound 1 µM, first compound 1 µM): 95.6%
viability, T/C (second compound 1 µM, first compound 3.16 µM): 86.3%
viability, T/C (second compound 1 µM, first compound 10 µM): 80.5%
viability, T/C [4]: 91.3%
viability, T/C (second compound 3.16 µM, first compound 0.1 µM): 89.9%
viability, T/C (second compound 3.16 µM, first compound 0.316 µM): 77.4%
viability, T/C (second compound 3.16 µM, first compound 1 µM): 78.6%
viability, T/C (second compound 3.16 µM, first compound 3.16 µM): 84.6%
viability, T/C (second compound 3.16 µM, first compound 10 µM): 79%
viability, T/C [5]: 71.5%
viability, T/C (second compound 10 µM, first compound 0.1 µM): 77.9%
viability, T/C (second compound 10 µM, first compound 0.316 µM): 70.6%
viability, T/C (second compound 10 µM, first compound 1 µM): 62.4%
viability, T/C (second compound 10 µM, first compound 3.16 µM): 54.2%
viability, T/C (second compound 10 µM, first compound 10 µM): 58.3%
